Results on 3 compounds are retold here after paper PMC4457528, “Identification of Novel Small Molecule Inhibitors of Oncogenic RET Kinase” (PLoS ONE, 2015).

Assay in all cases: KinomeScan kinase panel, single concentration 10 µM
Holding throughout (assay type): binding

The target in experiment [1] is T1, KinomeScan kinase panel (Homo sapiens, UniProt Q13470).
T1 construct: purchased DiscoveRx (KinomeScan)
T1 sequence (Q13470 1-666): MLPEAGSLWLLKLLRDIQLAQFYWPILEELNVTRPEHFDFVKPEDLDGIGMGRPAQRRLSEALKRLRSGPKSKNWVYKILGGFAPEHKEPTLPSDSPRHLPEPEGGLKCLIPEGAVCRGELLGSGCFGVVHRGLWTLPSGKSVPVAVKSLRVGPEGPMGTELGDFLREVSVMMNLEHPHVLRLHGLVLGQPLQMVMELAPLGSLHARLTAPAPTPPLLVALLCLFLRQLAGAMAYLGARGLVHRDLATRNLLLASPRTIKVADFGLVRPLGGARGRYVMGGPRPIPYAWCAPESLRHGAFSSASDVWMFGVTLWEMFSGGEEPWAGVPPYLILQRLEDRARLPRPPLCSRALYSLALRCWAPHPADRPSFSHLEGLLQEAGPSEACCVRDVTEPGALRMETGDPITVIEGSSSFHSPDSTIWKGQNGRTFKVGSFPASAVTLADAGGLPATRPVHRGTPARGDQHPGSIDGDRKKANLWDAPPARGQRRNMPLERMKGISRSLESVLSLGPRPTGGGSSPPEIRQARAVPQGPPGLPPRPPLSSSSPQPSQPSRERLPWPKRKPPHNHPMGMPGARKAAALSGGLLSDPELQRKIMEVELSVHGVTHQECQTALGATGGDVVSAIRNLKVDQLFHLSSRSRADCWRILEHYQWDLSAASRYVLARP
To be noted: read-out: score (%).

The target in experiment [2] is T2, KinomeScan kinase panel (Homo sapiens, UniProt P78356).
T2 construct: purchased DiscoveRx (KinomeScan)
T2 sequence (P78356 1-416): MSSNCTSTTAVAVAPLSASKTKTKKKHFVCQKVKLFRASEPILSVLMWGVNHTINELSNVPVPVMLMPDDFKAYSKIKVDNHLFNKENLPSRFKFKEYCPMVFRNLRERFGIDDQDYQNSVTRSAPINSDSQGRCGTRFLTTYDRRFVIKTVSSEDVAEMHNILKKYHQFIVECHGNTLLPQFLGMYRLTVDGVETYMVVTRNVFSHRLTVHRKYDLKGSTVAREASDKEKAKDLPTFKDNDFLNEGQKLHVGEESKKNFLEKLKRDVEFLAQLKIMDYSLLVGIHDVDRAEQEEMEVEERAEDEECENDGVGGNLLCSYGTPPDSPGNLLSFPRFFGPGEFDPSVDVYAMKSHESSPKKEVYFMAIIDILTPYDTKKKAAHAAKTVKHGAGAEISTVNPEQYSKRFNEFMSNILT
To be noted: PIP5K2B, 10 µM; read-out: score (%).

The target of experiment [3] is T3, KinomeScan kinase panel (Homo sapiens, UniProt P54756).
T3 construct: purchased DiscoveRx (KinomeScan)
T3 sequence (P54756 25-1037): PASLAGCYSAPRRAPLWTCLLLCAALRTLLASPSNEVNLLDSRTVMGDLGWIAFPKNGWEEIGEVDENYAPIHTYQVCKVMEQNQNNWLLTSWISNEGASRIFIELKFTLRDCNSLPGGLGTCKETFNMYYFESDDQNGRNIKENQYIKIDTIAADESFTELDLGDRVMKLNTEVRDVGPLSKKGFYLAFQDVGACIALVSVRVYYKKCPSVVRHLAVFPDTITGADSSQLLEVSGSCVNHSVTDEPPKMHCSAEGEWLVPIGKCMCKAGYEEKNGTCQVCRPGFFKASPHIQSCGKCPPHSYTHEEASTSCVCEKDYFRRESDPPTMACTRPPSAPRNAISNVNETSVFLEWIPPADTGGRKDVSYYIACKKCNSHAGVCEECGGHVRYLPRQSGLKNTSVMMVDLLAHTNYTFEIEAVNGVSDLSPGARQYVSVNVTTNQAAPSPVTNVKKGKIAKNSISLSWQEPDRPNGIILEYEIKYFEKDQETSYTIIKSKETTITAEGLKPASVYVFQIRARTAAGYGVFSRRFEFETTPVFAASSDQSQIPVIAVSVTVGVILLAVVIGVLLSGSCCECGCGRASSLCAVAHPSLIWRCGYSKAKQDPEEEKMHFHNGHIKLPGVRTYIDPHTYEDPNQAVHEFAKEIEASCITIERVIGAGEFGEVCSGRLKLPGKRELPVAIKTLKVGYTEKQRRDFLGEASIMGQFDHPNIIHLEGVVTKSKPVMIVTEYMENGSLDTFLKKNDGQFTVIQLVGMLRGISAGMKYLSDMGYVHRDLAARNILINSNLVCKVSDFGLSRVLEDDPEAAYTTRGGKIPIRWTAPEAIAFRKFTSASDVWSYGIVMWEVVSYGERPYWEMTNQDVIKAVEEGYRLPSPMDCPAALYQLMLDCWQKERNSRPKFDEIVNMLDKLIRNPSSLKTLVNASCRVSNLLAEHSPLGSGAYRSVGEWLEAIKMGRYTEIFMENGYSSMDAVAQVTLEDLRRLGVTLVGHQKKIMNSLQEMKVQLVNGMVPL
As to conditions: EPHA5, 10 µM.

Experiment [4] has as its target T4, KinomeScan kinase panel (Homo sapiens, UniProt P49840).
T4 construct: purchased DiscoveRx (KinomeScan)
As to conditions: GSK3A, 10 µM; read-out: score (%).

Experiment [5] deals with T5, KinomeScan kinase panel (Homo sapiens, UniProt P35968).
T5 construct: purchased DiscoveRx (KinomeScan)
T5 sequence (P35968 20-1356): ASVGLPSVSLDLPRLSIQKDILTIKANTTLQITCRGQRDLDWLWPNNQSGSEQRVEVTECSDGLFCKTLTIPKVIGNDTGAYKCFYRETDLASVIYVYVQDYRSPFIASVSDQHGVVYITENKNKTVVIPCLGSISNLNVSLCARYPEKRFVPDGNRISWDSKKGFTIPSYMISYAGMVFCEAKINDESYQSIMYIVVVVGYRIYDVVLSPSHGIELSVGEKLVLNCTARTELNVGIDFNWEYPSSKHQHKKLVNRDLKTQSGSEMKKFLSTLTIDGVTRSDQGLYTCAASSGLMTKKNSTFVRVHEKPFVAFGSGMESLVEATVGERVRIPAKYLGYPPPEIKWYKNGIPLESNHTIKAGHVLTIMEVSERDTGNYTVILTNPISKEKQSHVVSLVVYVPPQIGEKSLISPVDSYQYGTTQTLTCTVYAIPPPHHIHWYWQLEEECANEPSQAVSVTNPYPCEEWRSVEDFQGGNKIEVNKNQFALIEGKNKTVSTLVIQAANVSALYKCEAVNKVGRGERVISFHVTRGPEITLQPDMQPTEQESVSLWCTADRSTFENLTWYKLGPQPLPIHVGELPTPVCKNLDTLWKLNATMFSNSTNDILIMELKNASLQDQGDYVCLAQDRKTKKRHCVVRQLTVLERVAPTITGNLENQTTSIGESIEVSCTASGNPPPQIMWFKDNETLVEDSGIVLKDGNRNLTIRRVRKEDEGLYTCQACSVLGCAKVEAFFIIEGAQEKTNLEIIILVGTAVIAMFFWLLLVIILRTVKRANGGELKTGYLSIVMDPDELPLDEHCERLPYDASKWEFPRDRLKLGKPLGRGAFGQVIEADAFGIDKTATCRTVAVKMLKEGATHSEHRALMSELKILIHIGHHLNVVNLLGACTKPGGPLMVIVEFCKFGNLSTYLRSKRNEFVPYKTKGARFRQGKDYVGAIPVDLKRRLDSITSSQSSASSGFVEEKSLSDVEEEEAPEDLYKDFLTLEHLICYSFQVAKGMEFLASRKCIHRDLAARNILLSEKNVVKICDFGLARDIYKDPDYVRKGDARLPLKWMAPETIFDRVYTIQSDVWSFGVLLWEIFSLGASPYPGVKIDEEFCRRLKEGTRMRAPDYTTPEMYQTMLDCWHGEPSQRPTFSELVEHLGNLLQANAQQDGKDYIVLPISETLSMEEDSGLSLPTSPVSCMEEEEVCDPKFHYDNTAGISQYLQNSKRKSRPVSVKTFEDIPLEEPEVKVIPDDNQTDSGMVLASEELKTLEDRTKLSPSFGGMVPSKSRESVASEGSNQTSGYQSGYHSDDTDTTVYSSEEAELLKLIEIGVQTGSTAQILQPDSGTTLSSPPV
As to conditions: kinase VEGFR2; 10 µM; read-out: score (%).

The target in experiment [6] is T6, KinomeScan kinase panel (Homo sapiens, UniProt P57059).
T6 construct: purchased DiscoveRx (KinomeScan)
T6 sequence (P57059 whole entry): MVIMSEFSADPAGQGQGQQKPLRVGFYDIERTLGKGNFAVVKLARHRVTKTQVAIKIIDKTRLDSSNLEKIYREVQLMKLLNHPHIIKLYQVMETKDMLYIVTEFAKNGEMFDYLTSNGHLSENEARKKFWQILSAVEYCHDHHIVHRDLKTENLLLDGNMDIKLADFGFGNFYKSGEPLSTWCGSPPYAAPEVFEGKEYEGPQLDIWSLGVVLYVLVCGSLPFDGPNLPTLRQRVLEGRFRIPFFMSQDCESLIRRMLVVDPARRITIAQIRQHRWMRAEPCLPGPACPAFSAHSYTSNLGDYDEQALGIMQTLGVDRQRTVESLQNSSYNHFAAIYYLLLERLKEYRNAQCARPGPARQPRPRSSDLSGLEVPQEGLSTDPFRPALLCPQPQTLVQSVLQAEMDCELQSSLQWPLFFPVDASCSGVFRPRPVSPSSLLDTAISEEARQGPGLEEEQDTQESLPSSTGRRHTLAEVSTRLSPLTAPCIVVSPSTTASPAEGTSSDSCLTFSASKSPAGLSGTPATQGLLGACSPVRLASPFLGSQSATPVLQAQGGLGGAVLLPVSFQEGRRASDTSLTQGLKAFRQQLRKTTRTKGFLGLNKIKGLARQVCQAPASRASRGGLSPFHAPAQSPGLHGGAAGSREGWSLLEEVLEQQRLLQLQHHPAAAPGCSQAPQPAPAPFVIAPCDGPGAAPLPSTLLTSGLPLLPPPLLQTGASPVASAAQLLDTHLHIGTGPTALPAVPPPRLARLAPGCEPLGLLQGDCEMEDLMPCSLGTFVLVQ
To be noted: 10 µM.

Experiment [7] deals with T7, KinomeScan kinase panel (Homo sapiens, UniProt P10721, T670I/V559D).
T7 construct: purchased DiscoveRx (KinomeScan)
T7 sequence (P10721 26-976 V559D/T670I): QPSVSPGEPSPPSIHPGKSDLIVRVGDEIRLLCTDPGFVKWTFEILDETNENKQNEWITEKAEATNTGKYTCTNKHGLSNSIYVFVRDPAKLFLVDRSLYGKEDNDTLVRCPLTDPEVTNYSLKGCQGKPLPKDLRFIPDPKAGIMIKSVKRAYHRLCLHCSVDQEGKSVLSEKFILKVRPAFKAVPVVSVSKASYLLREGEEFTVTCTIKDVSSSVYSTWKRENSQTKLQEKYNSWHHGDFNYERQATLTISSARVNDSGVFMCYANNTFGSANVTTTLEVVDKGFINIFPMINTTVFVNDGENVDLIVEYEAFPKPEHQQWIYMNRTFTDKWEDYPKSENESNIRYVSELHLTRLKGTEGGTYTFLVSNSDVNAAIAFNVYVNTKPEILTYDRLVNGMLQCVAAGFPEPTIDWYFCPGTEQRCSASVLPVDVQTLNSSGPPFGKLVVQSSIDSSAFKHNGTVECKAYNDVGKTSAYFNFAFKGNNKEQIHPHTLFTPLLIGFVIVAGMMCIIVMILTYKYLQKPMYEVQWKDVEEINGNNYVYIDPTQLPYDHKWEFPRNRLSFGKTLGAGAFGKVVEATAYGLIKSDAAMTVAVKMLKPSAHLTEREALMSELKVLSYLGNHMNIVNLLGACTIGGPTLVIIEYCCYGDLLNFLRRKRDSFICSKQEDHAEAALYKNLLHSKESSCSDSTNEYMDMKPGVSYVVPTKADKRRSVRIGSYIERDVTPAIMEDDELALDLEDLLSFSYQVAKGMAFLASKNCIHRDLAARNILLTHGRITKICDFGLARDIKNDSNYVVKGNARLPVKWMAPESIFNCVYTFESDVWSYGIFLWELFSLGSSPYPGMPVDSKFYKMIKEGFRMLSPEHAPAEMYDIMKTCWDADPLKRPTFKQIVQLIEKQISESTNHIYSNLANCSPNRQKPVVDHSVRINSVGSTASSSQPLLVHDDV
As to conditions: KIT(V559D.T670I), 10 µM; read-out: score (%).

Experiment [8] deals with T8, KinomeScan kinase panel (Homo sapiens, UniProt Q7L7X3).
T8 construct: purchased DiscoveRx (KinomeScan)
T8 sequence (Q7L7X3 1-1001): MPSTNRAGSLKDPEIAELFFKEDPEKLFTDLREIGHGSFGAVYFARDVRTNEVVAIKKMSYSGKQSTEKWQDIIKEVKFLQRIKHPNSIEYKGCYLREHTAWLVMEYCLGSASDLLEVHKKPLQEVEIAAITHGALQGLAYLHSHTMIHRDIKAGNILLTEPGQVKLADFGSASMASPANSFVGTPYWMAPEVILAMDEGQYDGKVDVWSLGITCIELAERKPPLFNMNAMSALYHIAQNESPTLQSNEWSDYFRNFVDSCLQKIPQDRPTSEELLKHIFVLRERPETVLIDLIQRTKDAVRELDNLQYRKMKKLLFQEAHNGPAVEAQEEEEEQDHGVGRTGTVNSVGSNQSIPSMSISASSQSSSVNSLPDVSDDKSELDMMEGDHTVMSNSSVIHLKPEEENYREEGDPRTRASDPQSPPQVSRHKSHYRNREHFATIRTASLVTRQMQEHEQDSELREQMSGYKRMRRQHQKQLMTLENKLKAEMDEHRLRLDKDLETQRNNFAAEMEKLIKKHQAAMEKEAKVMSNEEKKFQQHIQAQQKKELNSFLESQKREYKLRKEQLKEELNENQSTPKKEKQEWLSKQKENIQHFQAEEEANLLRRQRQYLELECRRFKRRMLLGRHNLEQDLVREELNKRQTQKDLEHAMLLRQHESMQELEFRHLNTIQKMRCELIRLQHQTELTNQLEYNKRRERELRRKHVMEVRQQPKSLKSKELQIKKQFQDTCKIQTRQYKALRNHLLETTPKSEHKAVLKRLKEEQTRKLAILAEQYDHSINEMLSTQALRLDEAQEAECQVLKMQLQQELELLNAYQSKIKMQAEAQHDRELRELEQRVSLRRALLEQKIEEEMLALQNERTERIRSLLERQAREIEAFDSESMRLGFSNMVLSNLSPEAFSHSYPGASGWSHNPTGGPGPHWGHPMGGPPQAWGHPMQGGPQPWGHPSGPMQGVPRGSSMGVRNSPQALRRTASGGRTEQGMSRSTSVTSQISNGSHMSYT
To be noted: read-out: score (%).

Experiment [9] has as its target T9, KinomeScan kinase panel (Homo sapiens, UniProt Q9BXA7).
T9 construct: purchased DiscoveRx (KinomeScan)
T9 sequence (Q9BXA7 1-367): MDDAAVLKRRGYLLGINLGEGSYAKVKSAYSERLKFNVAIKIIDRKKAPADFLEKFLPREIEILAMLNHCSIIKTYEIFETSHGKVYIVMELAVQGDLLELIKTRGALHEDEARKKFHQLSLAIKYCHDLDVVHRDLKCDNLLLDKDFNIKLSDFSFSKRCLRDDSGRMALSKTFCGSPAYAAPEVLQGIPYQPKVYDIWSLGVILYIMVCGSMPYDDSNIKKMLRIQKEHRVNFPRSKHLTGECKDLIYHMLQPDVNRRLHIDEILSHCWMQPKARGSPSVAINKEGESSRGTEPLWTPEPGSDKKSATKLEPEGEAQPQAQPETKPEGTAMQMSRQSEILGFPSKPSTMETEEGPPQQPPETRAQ
To be noted: read-out: score (%).

Like-named read-outs stand apart in the source and are kept apart here. A value given as a limit tells only on which side of the number the result lay.

T4 sequence (P49840 whole entry): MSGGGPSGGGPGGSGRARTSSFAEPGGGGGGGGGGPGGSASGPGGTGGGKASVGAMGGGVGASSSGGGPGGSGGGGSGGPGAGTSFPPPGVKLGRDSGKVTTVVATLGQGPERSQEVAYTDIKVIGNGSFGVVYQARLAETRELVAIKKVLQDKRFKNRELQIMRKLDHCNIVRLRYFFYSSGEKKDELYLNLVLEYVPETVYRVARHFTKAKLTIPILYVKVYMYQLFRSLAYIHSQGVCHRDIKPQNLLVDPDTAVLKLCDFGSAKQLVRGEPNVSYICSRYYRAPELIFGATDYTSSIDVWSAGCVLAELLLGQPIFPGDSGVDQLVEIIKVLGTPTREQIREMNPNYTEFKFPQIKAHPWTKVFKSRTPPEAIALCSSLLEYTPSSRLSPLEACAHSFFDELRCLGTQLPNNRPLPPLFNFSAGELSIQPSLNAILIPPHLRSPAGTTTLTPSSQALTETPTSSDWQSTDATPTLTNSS

As to `CCN1CCN(Cc2ccc(NC(=O)c3ccc(C)c(NC(=O)c4cncc(-c5cccs5)c4)c3)cc2C(F)(F)F)CC1` [ALW-II-41-27], the remaining binding at 10 µM on KinomeScan kinase panel [1] (kinase TNK1, 10 µM) is 7.7%; at KinomeScan kinase panel [2] it was greater than 30%; at KinomeScan kinase panel [4] it was greater than 30%; at KinomeScan kinase panel [5], 1.8%; at KinomeScan kinase panel [7], 0.05%; on KinomeScan kinase panel [8] (kinase TAOK1, 10 µM), greater than 30%. In addition, the remaining binding at 10 µM at KinomeScan kinase panel [9] (kinase TSSK1B, 10 µM) is greater than 30%. Besides, the “score (%)” value on KinomeScan kinase panel [3] is 0.25%; on KinomeScan kinase panel [6] (kinase SIK), 0.2%.

As to `CCN1CCN(Cc2ccc(NC(=O)c3ccc(C)c(/C=C/c4cnc5[nH]ccc5c4Cl)c3)cc2C(F)(F)F)CC1` [HG-6-63-01, (E)-3-(2-(4-chloro-1H-pyrrolo[2,3-b]pyridin-5-yl)vinyl)-N-(4-((4-ethylpiperazin-1-yl)methyl)-3-(trifluoromethyl)phenyl)-4-methylbenzamide], the remaining binding at 10 µM was 0.8% on KinomeScan kinase panel [1] (TNK1, 10 µM); 5% at KinomeScan kinase panel [2]; greater than 30% on KinomeScan kinase panel [4]; 0.35% at KinomeScan kinase panel [5]; 0% on KinomeScan kinase panel [7]; 6.5% on KinomeScan kinase panel [8] (TAOK1, 10 µM). Besides, the remaining binding at 10 µM on KinomeScan kinase panel [9] (TSSK1, 10 µM) is greater than 30%. For the same compound, the “score (%)” value at KinomeScan kinase panel [3] was 3.3%; at KinomeScan kinase panel [6] (SNF1LK) it was 0.3%.

For `CCN1CCN(Cc2ccc(NC(=O)c3ccc(C)c(C#Cc4cccnc4)c3)cc2C(F)(F)F)CC1` [XMD15-44], the remaining binding at 10 µM is 0% at KinomeScan kinase panel [1] (kinase TNK1, 10 µM); 58% on KinomeScan kinase panel [2]; greater than 30% on KinomeScan kinase panel [4]; 0.25% at KinomeScan kinase panel [5]; 0% at KinomeScan kinase panel [7]; 0.25% at KinomeScan kinase panel [8] (kinase TAOK1, 10 µM). Besides, the remaining binding at 10 µM at KinomeScan kinase panel [9] (kinase TSSK1B, 10 µM) is 92%. For the same compound, the “score (%)” value was 1.2% at KinomeScan kinase panel [3] and 0.45% on KinomeScan kinase panel [6] (kinase SIK).
